Read-outs that look alike come from different tables or passages of the source.
Columns and labels:
[1] = test system: LPS-induced vascular leakage; test: LPS-induced vascular permeability in mice with EIU (fluorophotometry); format: in vivo, C57Bl6/J mice
Experimental: Twenty-four female C57Bl6/J mice, 10 weeks old and weighing 18–20 g (Charles River, Sulzfeld, Germany) were housed in individually ventilated GM500 cages (Tecniplast, Pontremoli, Italy) with a maximum density of n = 4 mice with the same litter and sex. The room was kept at 20°C–24°C with 50%–60% humidity and a 12/12 h light-dark cycle. Animals were held on a standard mouse diet with ad libitum access to food and water.
Mice were anesthetized with isoflurane 3% in 100% O2, a drop of 1% Novesin 0.4% (Omnivision, Pucheim, Germany) and a drop of Tropicamide 1% w/v (Bausch + Lomb Incorporated, Kingston, United Kingdom). Eyes were subsequently cleaned with povidone iodine 5% Ophthalmic Prep Solution (Alcon, Geneva, Switzerland) and were immediately pre-punctured with a 30-gauge needle. Both eyes were injected with a single 1 µL IVT injection of 1 ng LPS (Sigma-Aldrich, St. Louis, MO, United States) or a single injection of Dulbecco’s phosphate buffered saline (PBS) (Fisher Scientific, Schwerte, Germany) (vehicle control) using a Nanofil syringe connected to a 34-gauge needle.
Vehicle solution [w/w] was prepared using 0.1% hydroxyethyl cellulose, 1.0% polysorbate 80, 0.18% methylparaben, and 0.02% propylparaben in 10 mM citrate (pH 6.0). RG7774 (0.6 and 2.0 mg/mL) was added to freshly prepared vehicle, stirred on a magnetic stirrer for at least 15 min, and a volume of 5 mL/kg was administered directly to the stomach of each EIU mouse using a 1 mL syringe with an oral gavage needle. Gavage was performed twice daily (6 mg/kg/day BID and 20 mg/kg/day BID) on the evening and morning prior to LPS injection, on the evening after LPS injection, and on the morning before fluorophotometry.
Mice were anesthetized 24 h after receiving LPS or vehicle control using subcutaneous (SC) injections of fentanyl 0.05 mg/kg, medetomidine 0.5 mg/kg, and midazolam 5 mg/kg. […] Fundus infrared and fundus fluorescein angiography (FFA) images of both eyes were recorded 30 min later using optical coherence tomography (OCT)/FFA (Spectralis HRA-OCT, Heidelberg Engineering, Heidelberg, Germany) with a 55° lens focused on the optic nerve with the optic disc in the center of the image to obtain sharp images of the fundus. […] The supernatant (10 µL) was diluted in 990 µL PBS in a microcuvette (PS Micro Photometer Cuvette 2 mL, 10 mm × 10 mm × 45 mm; LP Italiana, Milan, Italy) and samples were analyzed in duplicate using the FM-2 Fluorotron (450–490 nm excitation; 520–600 nm emission detection). […]
To quantify fluorotron measurements, raw files were generated, exported as txt. files, and plotted using Microsoft Excel. The average area under the curve (AUC) was calculated for 5 steps in each of the regions of the scans corresponding to retina, vitreous, and anterior chamber peaks. […]

Plasma protein binding = format: in vitro ADME; settings: read-out: PPB (fu)
Experimental: Pooled and frozen plasma from selected species were obtained from commercial suppliers (human […] and mouse […]3-C57; BioreclamationIV, NY, USA). Unbound RG7774 was identified using a 96-well, 150 μL, half-cell capacity Teflon equilibrium dialysis device with a 12–14 kDa molecular weight cut-off membrane (HT-Dialysis; Gales Ferry, CT, USA) to minimize nonspecific binding. RG7774 and positive control (diazepam) were tested with an initial total concentration of 1000 nM (cassettes of 2 to 5 test items). Equal volumes of matrix samples containing RG7774 or diazepam and blank (Soerensen) dialysis buffer were loaded into the opposite compartments of each well. Biological matrix and phosphate buffer were adjusted to pH 7.4 on the day of the experiment. The dialysis block was sealed and incubated at 37 °C in 5% CO2 for 5 h. The seal was removed and matrix and buffer from each dialysis were sampled and analyzed by LC-MS/MS. All protein binding determinations were performed in triplicate. Membrane integrity was tested in the HT-Dialysis device by determining the unbound fraction values for diazepam in each well. At equilibrium, the unbound drug concentration in the biological matrix compartment of the equilibrium dialysis apparatus is the same as the concentration of the compound in the buffer compartment. Thus, the percent unbound fraction was calculated as follows: % fraction unbound = 100 × buffer concentration after dialysis/matrix concentration after dialysis. Device recovery was checked by measuring the concentrations of compound in the matrix before dialysis and calculating the percent recovery (mass balance). Recovery ranging from 80%–120% was required for data acceptance.

Cn1nnnc1Cn1nnc2c(N3CC[C@H](O)C3)nc(C(C)(C)C)nc21 [RG7774, (S)-1-(5-tert-butyl-3-[(1-methyl-1H-tetrazol-5-yl)methyl]-3H-[1,2,3]triazolo[4,5-d]pyrimidin-7-yl)pyrrolidin-3-ol]
reduction of LPS-induced vascular leakage in the retina versus vehicle control ([1]; 6 mg/kg/day oral BID): 102% | reduction of LPS-induced vascular leakage in the vitreous ([1]; 6 mg/kg/day oral BID): 74% | reduction of LPS-induced vascular leakage in the retina versus vehicle control ([1]; 20 mg/kg/day oral BID): 106% | reduction of LPS-induced vascular leakage in the vitreous ([1]; 20 mg/kg/day oral BID): 76% | fraction unbound at 5 h, 1000 nM (Plasma protein binding; C57, pooled plasma, pH 7.4, mouse): 0.045 | fraction unbound at 5 h, 1000 nM (Plasma protein binding; pooled plasma, pH 7.4, human): 0.178 | fraction unbound at 5 h, 1000 nM (Plasma protein binding; pooled plasma, pH 7.4, rat): 0.158
